Literature values as cited in US5670479A, “α-ketoamide derivatives as inhibitors of thrombosis” (Corvas International, Inc., priority 1994, dated 1997).
≈ marks a conversion by molar mass, not a printed value.

Experiments:
[1] = target: T1, microsomal aminopeptidase (Sus scrofa, UniProt P15145); conditions: Ocain et al. 1992; cited from earlier work
T1 sequence (P15145 1-963): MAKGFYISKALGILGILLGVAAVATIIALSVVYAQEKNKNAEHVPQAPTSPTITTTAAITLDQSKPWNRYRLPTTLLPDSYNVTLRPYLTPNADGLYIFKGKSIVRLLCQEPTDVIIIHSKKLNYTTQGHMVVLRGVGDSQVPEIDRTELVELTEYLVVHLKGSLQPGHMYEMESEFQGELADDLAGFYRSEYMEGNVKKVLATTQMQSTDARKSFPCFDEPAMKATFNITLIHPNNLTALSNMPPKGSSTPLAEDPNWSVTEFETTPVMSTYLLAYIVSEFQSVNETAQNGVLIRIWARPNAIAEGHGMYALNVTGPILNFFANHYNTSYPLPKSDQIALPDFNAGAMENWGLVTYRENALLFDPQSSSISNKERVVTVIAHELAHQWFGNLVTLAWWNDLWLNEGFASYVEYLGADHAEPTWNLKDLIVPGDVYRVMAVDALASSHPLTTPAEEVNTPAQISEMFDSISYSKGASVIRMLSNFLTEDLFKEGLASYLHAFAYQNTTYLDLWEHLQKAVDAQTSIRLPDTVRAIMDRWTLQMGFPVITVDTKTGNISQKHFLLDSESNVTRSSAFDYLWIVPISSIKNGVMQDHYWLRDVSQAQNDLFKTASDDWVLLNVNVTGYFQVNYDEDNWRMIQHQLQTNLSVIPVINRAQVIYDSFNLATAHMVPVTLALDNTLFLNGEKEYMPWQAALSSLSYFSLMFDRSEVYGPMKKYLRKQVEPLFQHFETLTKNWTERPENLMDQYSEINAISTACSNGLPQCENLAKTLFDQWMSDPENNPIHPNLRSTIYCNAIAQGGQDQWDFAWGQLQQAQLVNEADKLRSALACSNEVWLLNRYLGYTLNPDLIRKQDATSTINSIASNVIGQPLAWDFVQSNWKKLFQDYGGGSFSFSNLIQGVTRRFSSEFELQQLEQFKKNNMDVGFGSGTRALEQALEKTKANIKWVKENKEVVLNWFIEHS

baboons [2] = conditions: baboon; dose which gives a 50% inhibition of platelet deposition; other direct antithrombins evaluated earlier in this model; cited from earlier work
baboons [3] = conditions: baboon, other direct antithrombins evaluated earlier in this model, cited from earlier work; for Antihemostatic Effects APTT: control 32 sec; for Antihemostatic Effects Bleeding Time: control 4 min
thrombin [4] = conditions: Fusetani et al.; cited from earlier work
thrombin [5] = target: thrombin (Homo sapiens, UniProt P00734); conditions: reported in literature; cited from earlier work

NC(=O)C(=O)C(N)Cc1ccccc1 (centres unmarked) [3-Amino-2-oxo-4-phenylbutanoic acid amide]
Ki [1]: 2.5 µM

CC1CNc2c(cccc2S(=O)(=O)N[C@@H](CCCNC(=N)N)C(=O)N2CC[C@@H](C)C[C@@H]2C(=O)O)C1 (stereo partly drawn) [Argatroban, 2R,4R-4-methyl-1-[N-2-(3-methyl-1,2,3,4-tetrahydro-8-quinolinesulfonyl)-L-argininal]-2-piperdinecarboxylic acid]
Antithrombotic Effects ED50 (baboons [2]): > 800 nmol/kg/min
Antihemostatic Effects APTT (baboons [3]): > 300 s

N=C(N)NCCC[C@@H]1NC(=O)[C@@H]2CCCN2C(=O)[C@@H](NC=O)CNC(=O)/C=C/[C@H](Cc2ccc(O)cc2)NC(=O)[C@@H](Cc2ccccc2)NC(=O)C1=O [Cyclotheonamide A]
IC50 (thrombin) (thrombin [4]): 76 µg/mL (≈ 104 µM)

N=C(N)NCCC[C@@H](C=O)NC(=O)[C@@H]1CCCN1C(=O)[C@H](N)Cc1ccccc1 [dF-P-R-al, D-phenylalanyl-prolyl-argininal]
Antithrombotic Effects ED50 (baboons [2]): 250 nmol/kg/min
Antihemostatic Effects APTT (baboons [3]): 145 s
Antihemostatic Effects Bleeding Time (baboons [3]): 14 min

NC(N)=NCCC[C@H](NC(=O)[C@@H]1CCCN1C(=O)[C@H](N)Cc1ccccc1)B(O)O [dF-P-boroR, D-phenyalanyl-prolinyl-boroarginine]
Antithrombotic Effects ED50 (baboons [2]): 25 nmol/kg/min
Antihemostatic Effects APTT (baboons [3]): 95 s
Antihemostatic Effects Bleeding Time (baboons [3]): 12 min

N-acetyl-D-Phe-Pro Arg-[yC(=O)--CH2 ]--CH2 --CH2 --CH2 --(C=O)-Gln-Ser-His-Asn-Asp-Gly-Asp-Phe-Glu-Glu-Ile-Pro-Glu-Glu-Tyr-Leu-Gln
Ki (thrombin [5]): 0.00014 µM
